pIC50: −log10 of the molar value.
These compounds were tested against BTK wild type (Homo sapiens (Human), UniProt Q06187) (assay: Inhibition assay of BTK kinase activity (HTRF)). Settings: all compounds with IC50 of less 10 nM; read-out: IC50 (BTK).
Format: biochemical
Description: Inhibition Assay of BTK Kinase Activity:
The enzyme reaction mixture of BTK wild type standard HTRF assay contained 1 nM BTK wild type, 1 μM biotin-TK1 peptide, and 30 μM ATP in a buffer. The enzyme reaction were carried out at room temperature for 60 minutes. […] The plates were incubated at room temperature for 60 minutes and then read in the Envision plate reader.

Sequence of BTK wild type (Q06187 whole entry): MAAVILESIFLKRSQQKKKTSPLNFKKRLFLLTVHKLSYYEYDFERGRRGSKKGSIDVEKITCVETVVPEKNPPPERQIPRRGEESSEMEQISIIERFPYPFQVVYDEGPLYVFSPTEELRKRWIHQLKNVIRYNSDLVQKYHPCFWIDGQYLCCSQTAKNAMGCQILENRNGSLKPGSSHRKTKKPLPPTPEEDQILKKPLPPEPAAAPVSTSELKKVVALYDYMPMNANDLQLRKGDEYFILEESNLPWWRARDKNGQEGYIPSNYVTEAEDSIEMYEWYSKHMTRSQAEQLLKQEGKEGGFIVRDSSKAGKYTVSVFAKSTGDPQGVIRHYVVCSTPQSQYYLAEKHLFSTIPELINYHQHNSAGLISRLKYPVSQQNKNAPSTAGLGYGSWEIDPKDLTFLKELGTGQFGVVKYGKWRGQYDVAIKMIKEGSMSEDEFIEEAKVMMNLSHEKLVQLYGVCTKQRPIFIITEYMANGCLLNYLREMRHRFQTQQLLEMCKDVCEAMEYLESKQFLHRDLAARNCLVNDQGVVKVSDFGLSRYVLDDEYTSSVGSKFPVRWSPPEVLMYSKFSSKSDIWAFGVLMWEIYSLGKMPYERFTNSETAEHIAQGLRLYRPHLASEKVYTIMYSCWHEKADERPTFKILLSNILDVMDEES

`C=CC(=O)N1CCC(n2nc(-c3ccc(Oc4cccc(F)c4)cc3F)c3c(N)ncnc32)C1` (stereo not shown) [Compound 15, 1-(3-(4-amino-3-(2-fluoro-4-(3-fluorophenoxy)phenyl)-1H-pyrazolo[3,4-d]pyrimidin-1-yl)pyrrolidin-1-yl)prop-2-en-1-one] gave a pIC50 greater than 8.00.

Same assay, conditions: read-out: BTK IC50

In order of falling pIC50:
1. C=CC(=O)N1CCCC(n2nc(-c3ccc(C(=O)c4ccccc4F)cc3F)c3c(N)ncnc32)C1 (stereo not shown) [Compound 4, 1-(3-(4-amino-3-(2-fluoro-4-(2-fluorobenzoyl)phenyl)-1H-pyrazolo[3,4-d]pyrimidin-1-yl)piperidin-1-yl)prop-2-en-1-one]  8.70
2. C=CC(=O)N1CCC(n2nc(-c3ccc(Oc4cccc(F)c4)cc3F)c3c(N)ncnc32)C1 (stereo not shown) [Compound 15, 1-(3-(4-amino-3-(2-fluoro-4-(3-fluorophenoxy)phenyl)-1H-pyrazolo[3,4-d]pyrimidin-1-yl)pyrrolidin-1-yl)prop-2-en-1-one]  8.52
3. C=CC(=O)N1CC[C@@H](n2nc(-c3ccc(Oc4nccc(C(F)(F)F)n4)cc3F)c3c(N)ncnc32)C1 [Compound 97, 1-((R)-3-(4-amino-3-(2-fluoro-4-(4-(trifluoromethyl)pyrimidin-2-yloxy)phenyl)-1H-pyrazolo[3,4-d]pyrimidin-1-yl)pyrrolidin-1-yl)prop-2-en-1-one]  8.22
4. Nc1ncnc2c1c(-c1ccc(Oc3c(F)c(F)cc(F)c3F)cc1F)nn2[C@@H]1CCN(C(=O)NO)C1 [Compound 115, (3R)-3-(4-amino-3-(2-fluoro-4-(2,3,5,6-tetrafluorophenoxy)phenyl)-1H-pyrazolo[3,4-d]pyrimidin-1-yl)-N-hydroxypyrrolidine-1-carboxamide]  7.89
5. C=CC(=O)N1CCC(Cn2nc(-c3ccc(Oc4c(F)c(F)cc(F)c4F)cc3F)c3c(N)ncnc32)CC1 [Compound 30, 1-(4-((4-amino-3-(2-fluoro-4-(2,3,5,6-tetrafluorophenoxy)phenyl)-1H-pyrazolo[3,4-d]pyrimidin-1-yl)methyl)piperidin-1-yl)prop-2-en-1-one]  7.62
6. C=CC(=O)N1CC[C@@H](n2nc(-c3ccc(Oc4ccnc5cc(OC)c(OC)cc45)cc3F)c3c(N)ncnc32)C1 [Compound 89, 1-((R)-3-(4-amino-3-(4-(6,7-dimethoxyquinolin-4-yloxy)-2-fluorophenyl)-1H-pyrazolo[3,4-d]pyrimidin-1-yl)pyrrolidin-1-yl)prop-2-en-1-one]  7.60
7. Nc1ncnc2c1c(-c1ccc(Oc3c(F)c(F)cc(F)c3F)cc1F)nn2[C@@H]1CCN(C(=O)C(Cl)CO)C1 (stereo partly shown) [Compound 119]  7.08
8. Nc1ncnc2c1c(-c1ccc(Oc3c(F)c(F)cc(F)c3F)cc1F)nn2[C@@H]1CCN(C(=O)CCCl)C1 [Compound 58, 1-((R)-3-(4-amino-3-(2-fluoro-4-(2,3,5,6-tetrafluorophenoxy)phenyl)-1H-pyrazolo[3,4-d]pyrimidin-1-yl)pyrrolidin-1-yl)-3-chloropropan-1-one]  6.83
9. CN(C)CC(=O)N1CCCC(n2nc(-c3ccc(Oc4c(F)c(F)cc(F)c4F)cc3F)c3c(N)ncnc32)C1 (stereo not shown) [Compound 62, 1-(3-(4-amino-3-(2-fluoro-4-(2,3,5,6-tetrafluorophenoxy)phenyl)-1H-pyrazolo[3,4-d]pyrimidin-1-yl)piperidin-1-yl)-2-(dimethylamino)ethanone]  6.68
10. Nc1ncnc2c1c(-c1ccc(Oc3c(F)c(F)cc(F)c3F)cc1F)nn2[C@H]1CCCN(C(=O)CF)C1 [Compound 108, 1-((S)-3-(4-amino-3-(2-fluoro-4-(2,3,5,6-tetrafluorophenoxy)phenyl)-1H-pyrazolo[3,4-d]pyrimidin-1-yl)piperidin-1-yl)-2-fluoroethanone]  6.36
11. C=CC(=O)N1CCC(n2nc3c4c(ncnc42)Nc2cc(Oc4c(F)c(F)cc(F)c4F)ccc2-3)C1 (stereo not shown) [Compound 24]  5.99
12. Nc1ncnc2c1c(-c1ccc(Oc3c(F)c(F)cc(F)c3F)cc1F)nn2[C@@H]1CCN(C(=O)/C=C/c2ccccc2)C1 [Compound 92, (E)-1-((R)-3-(4-amino-3-(2-fluoro-4-(2,3,5,6-tetrafluorophenoxy)phenyl)-1H-pyrazolo[3,4-d]pyrimidin-1-yl)pyrrolidin-1-yl)-3-phenylprop-2-en-1-one]  5.62
